The test system of data set [1] is Homo sapiens. The data set is described as follows: In vivo inhibition against human colon (HC-1) xenograft at a dose of 50 mg/kg. It counts as functional. Background: A xenograft is tissue or cells of one species grown in another, often human tumour cells in immunodeficient mice.
The test system of data set [2] is Homo sapiens. The data set is described as follows: In vivo inhibition against human colon (HC-1) xenograft at a dose of 20 mg/kg. The format is functional.
In data set [3] the test system is Homo sapiens. The data set is described as follows: In vivo inhibition against human colon (HC-1) xenograft at a dose of 75 mg/kg. It counts as functional.
The subject of data set [4] is CCRF-CEM. The data set is described as follows: In vitro cytotoxicity against human leukemia cell line CCRF-CEM. The format is functional, cell-based.
For data set [5], the system named is Homo sapiens. Briefly: In vivo inhibition against human colon (HC-1) xenograft at a dose of 37.5 mg/kg. It counts as functional.
For data set [6], the system named is Homo sapiens. The data set is described as follows: Effective dose for the dose dependent inhibition of tumor growth against human colon (HC-1) xenograft in mice. The format is functional.
For data set [7], the system named is Homo sapiens. Briefly: In vivo tumor inhibition against human colon (HC-1) xenograft after i.p. administration to C3H nude mice on days 4. On the set-up: concentration or dose not given beside the values. The format is functional.
Data set [8] relates to Homo sapiens. Briefly: In vivo tumor inhibition against human colon (HC-1) xenograft after i.p. administration to C3H nude mice on days 7. Also noted: concentration or dose not given beside the values. It counts as functional.
Data set [9] has as its system Homo sapiens. Briefly: In vivo tumor inhibition against human colon (HC-1) xenograft after i.p. administration to C3H nude mice on days 10. It counts as functional. Also noted: concentration or dose not given beside the values.
Data set [10] concerns Homo sapiens. The data set is described as follows: In vivo tumor inhibition against human colon (HC-1) xenograft after i.p. administration to C3H nude mice on day 1. The format is functional. On the set-up: concentration or dose not given beside the values.
The nature of data set [11]: Half life at pH 6.4; no dissociation up to day 33. Conditions: buffer. The format is ADME.
The test system of data set [12] is Homo sapiens. Briefly: Effective dose for the dose dependent inhibition of tumor growth against human colon (HC-1) xenograft in mice; Inactive. The format is functional, organism-based.
The nature of data set [13]: Half life at pH 7.4; no dissociation up to day 33. The format is ADME. The settings on record: buffer.
Data set [14] is described as follows: Half life at pH 5.4; no dissociation up to day 33. Conditions: buffer. The format is ADME.
The nature of data set [15]: Half life at pH 7.4. The format is ADME. The settings on record: buffer.
A short description of data set [16]: Half life at pH 6.4. It counts as ADME. The settings on record: buffer.
Data set [17] is described as follows: Half life at pH 5.4. It counts as ADME. The settings on record: buffer.

As a reminder, the inhibition in vivo is the percentage by which the read-out fell short of the control. By IC50 is commonly meant the concentration at which inhibition is half-maximal. As usually defined, the ED50 is the dose that gives a 50% effect, or the effect in half of the subjects. A word on the Inhibition: it is the share of the control response that was lost under treatment. What is called half-life is how long it takes for the measured level to halve.

Values after ≈ are worked out from the molar mass of the structure shown. Active and inactive are the calls of the source. No cut-off for these calls is given here. A value given as a limit tells only on which side of the number the result lay.

`Nc1nc(N)c2ncn([C@@H]3O[C@H](CO)[C@@H](O)C3(F)F)c2n1` had an inhibition in vivo at 50 mg/kg in data set [1] above 95%. In [2], this molecule registered an inhibition in vivo at 20 mg/kg above 95%. In data set [3], this molecule displayed an inhibition in vivo at 75 mg/kg above 95%. In addition, in data set [4], the half-maximal inhibitory concentration (IC50) was determined as 0.024 µg/mL (≈ 0.0794 µM). The same molecule came in with an inhibition in vivo at 37.5 mg/kg in [5] above 95%.

The molecule `Cc1ccc(C(Nc2nc(N)nc3c2ncn3[C@@H]2O[C@H](CO)[C@@H](O)C2(F)F)(c2ccccc2)c2ccc(C(=O)NC(C)C)cc2)cc1` (stereo not given in full) had an ED50 in data set [6] of 30 mg/kg. Also, the Inhibition in data set [7], in data set [8], in data set [9] and in [10] was above 95% throughout. In data set [4], this molecule gave an IC50 of 0.8 µg/mL (≈ 1.24 µM).

Regarding `COc1ccc(C(Nc2nc(N)nc3c2ncn3[C@@H]2O[C@H](CO)[C@@H](O)C2(F)F)(c2ccc(C)cc2)c2ccc(C(=O)NC(C)C)cc2)cc1` (stereo not given in full), the Inhibition in data set [7], in data set [8], in data set [9] and in data set [10] was above 95% in each case. The IC50 in data set [4] was found to be 0.1 µg/mL (≈ 0.148 µM).

In the case of `CC(C)NC(=O)c1ccc(C(Nc2nc(N)nc3c2ncn3[C@@H]2O[C@H](CO)[C@@H](O)C2(F)F)(c2ccccc2)c2ccccc2)cc1`, the T1/2 entry in data set [11], in [13] and in [14] was “no dissociation up to day 33” throughout. The Inhibition in data set [7], in data set [8], in data set [9] and in data set [10] was above 95% in each case. The ED50 result in data set [12] is “inactive”. In data set [4], this molecule came in with an IC50 of 1.7 µg/mL (≈ 2.7 µM).

As for `COc1ccc(C(Nc2nc(N)nc3c2ncn3[C@@H]2O[C@H](CO)[C@@H](O)C2(F)F)(c2ccccc2)c2ccc(C(=O)NC(C)C)cc2)cc1` (stereo not given in full), the Inhibition in data set [7], in data set [8], in [9] and in data set [10] was above 95% in each case. Moreover, in data set [4], the IC50 was determined as 0.1 µg/mL (≈ 0.152 µM). In addition, the half-life was 800 h in [15], 547 h in data set [16] and 16.7 h in [17].

Molecule `COc1ccc(C(Nc2nc(N)nc3c2ncn3[C@@H]2O[C@H](CO)[C@@H](O)C2(F)F)(c2ccc(OC)cc2)c2cccc(C(=O)NC(C)C)c2)cc1` displayed an IC50 in [4] of 0.084 µg/mL (≈ 0.122 µM). Moreover, the half-life in [15] is 133 h; in data set [16] it was 23.3 h; in data set [17] it was 2.35 h.

As to `COc1ccc(C(Nc2nc(N)nc3c2ncn3[C@@H]2O[C@H](CO)[C@@H](O)C2(F)F)(c2ccc(OC)cc2)c2ccc(C(=O)NC(C)C)cc2)cc1`, the Inhibition in data set [7], in data set [8], in data set [9] and in [10] was above 95% throughout. Also, the half-maximal inhibitory concentration (IC50) in [4] came to 0.078 µg/mL (≈ 0.113 µM). Also, the figures for the half-life in [15], in data set [16] and in [17] were 146 h, 14.8 h and 3.71 h, respectively.
